The test system of data set [1] is acetyl coenzyme A carboxylase (ACC). In words: ACC phosphorylation in HepG2 cells, Western blot. The data set is classed as cell-based, human. Conditions: 20 μM, 1, 2, and 3 days (FIG. 12). How it is done: HepG2 cells were treated with 20 μg/ml14R-(+)-THP for 0.5, 2, or 8 hours. Cells were lysed, and 50 μg protein from each sample was subjected to SDS-PAGE, followed by Western blotting using anti-phosphorylated ACC (Cell Signaling) and subsequently reprobed with antibody against β-actin.
(§1) Cells were harvested after 1, 2, and 3 days treatment and western blot analysis was conducted using antibodies directed to LDLR and PCSK9. Chicken anti-LDLR was purchased from Abeam, the mouse anti-PCSK9 was purchased from Cayman Chemicals, and anti-pACC was purchased from Cell Signaling.
Background: Immunoblotting shows a protein as a band on a membrane.

Data set [2] has as its system LDLR. The data set can be described thus: LDLR protein expression in HepG2 cells, Western blot. Conditions: 20 μM, 1, 2, and 3 days. The class given is cell-based, human. How it is done: as §1
(§2) To determine whether the stimulatory effects of statins on LDLR protein expression could be enhanced by some new compounds invented herein, HepG2 cells were untreated or treated with a low dose of rosuvastatin (RSV) at 0.3 and 1 uM concentration in the absence or the presence of Compound 127(+), or treated with low concentrations of Compound 127(+) alone for 2 days. Western blot analysis was conducted to examine LDLR and PCSK9 protein levels. Compound 127(+) is the single enantiomer of compound 127 with a positive optical rotation. […] Furthermore, the inducing effects of RSV on PCSK9 protein levels were anatagonized by compound 127(+).
(§3) Chicken anti-LDLR was purchased from Abeam and the mouse anti-PCSK9 was purchased from Cayman Chemicals. HepG2 cells cultured in 60-mm dishes were incubated overnight in medium containing 0.5% fetal bovine serum prior to the addition of compounds at 20 uM concentration for 1-3 days. Total cell lysate was isolated and 50 μg of protein was separated on SDS-PAGE and transferred to nitrocellulose membrane for immunoblotting with anti-LDLR, anti-PCSK9, and anti-p-ACC.

Data set [3] concerns PCSK9. In words: PCSK9 protein expression in HepG2 cells, Western blot. The class given is cell-based, human. Conditions: 20 μM, 1, 2, and 3 days. How it is done:
as §1, §2, §3

The test system of data set [4] is hyperlipidemic rabbits. The note with it: rabbit, in vivo.
Method: (§4) Forty-two male Japanese rabbits were fed the cholesterol enriched rabbit diet for two weeks to induce hypercholesterolemia. […] Serum samples were collected at day 0 (before the drug treatment) and day 7. […] All tested animals were sacrified at the end of a total of 14 days treatment and serum samples were analyzed for TC, LDL-C, TG, and HDL-C. In addition to lipid profiles, a number of biochemical parameters were also analyzed to aseesee the effects of drug treatments on liver function, muscle function, kidney function, and heart function.
The test system of data set [5] is hyperlipidemic rabbits. In words: Lipid lowering effects and blood chemistry in hyperlipidemic rabbits. Conditions: for Body weight: after 14 days of drug treatment; for Body weight / ALP / ALT / AST / CK / CREA / GLU / HDL-C / LDH / LDL-C / TC / TG: mean, n = 6; for serum total cholesterol levels, treatment day 0: day 0 (before the drug treatment), n = 6, in mmol/L (unit assumed); for serum total cholesterol levels, treatment day 0 / serum total cholesterol levels, treatment day 4 / serum total cholesterol levels, treatment day 7 / serum total cholesterol levels, treatment day 10 / serum total cholesterol levels, treatment day 14: mean ± SD; for serum total cholesterol levels, treatment day 4: day 4, oral gavage once a day; for serum total cholesterol levels, treatment day 4 / serum total cholesterol levels, treatment day 7: 128(+)/128(−) 30 mg/kg, SMV/ATV 3 mg/kg; for serum total cholesterol levels, treatment day 7: day 7, oral gavage once a day; for serum total cholesterol levels, treatment day 10: day 10, doses increased after day 7 to 60 mg/kg (128(+)/128(−)) and 10 mg/kg (SMV/ATV), in mmol/L (unit assumed); for serum total cholesterol levels, treatment day 14: day 14, doses increased after day 7 to 60 mg/kg (128(+)/128(−)) and 10 mg/kg (SMV/ATV); for ALP / ALT / AST / CK / CREA / GLU / HDL-C / LDH / LDL-C / TC / TG: serum after 14 days of drug treatment.
Method: as §4

The test system of data set [6] is LDLR mRNA. The data set can be described thus: LDLR mRNA expression in HepG2 cells, quantitative real-time RT-PCR. The note with it: indicated concentrations, 24 hours (FIG. 15A). The data set is classed as cell-based, human. How it is done:
Activities of some compounds of Formulas I, II, III, and IV on LDLR mRNA expression were determined. HepG2 cells were treated with new compounds individually at a dose less than or equal to 10 μM for 24 hours. Total RNA was harvested for quantitative real-time RT-PCR analysis using the method described in Example 16B. […] In these experiments, berberine chloride was included for comparison.
The time-dependent effects of compounds of Formula I, II, III, and IV on the upregulation of LDLR mRNA and the inhibition of PCSK9 mRNA expression were examined (Horton J D, Cohen J C, Hobbs H I T. “Molecular biology of PCSK9: its role in LDL metabolism” TRENDS in Biochemical Sciences 2007; 32:71-77). HepG2 cells were treated with new compounds individually at 20 uM dose for 1 day, 2 day, and 3 days. Total RNA was isolated and 2 μg was used to generate cDNA in a reaction containing random primers and M-MLV at 37° C. for 1 hour in a volume of 25 μl. Real-time PCR was performed on the cDNA using MCEP REALPLEX 2 SYSTEM (Eppendorf) and Universal MasterMix (Applied Biosystems). Human LDLR, PCSK9, and GAPDH Pre-Developed TaqMan Assay Reagents (Applied Biosystems) were used to assess the levels of mRNA expressions in HepG2. The levels of LDLR mRNA or PCSK9 mRNA were normalized to that of GAPDH. Each RNA samples was assayed in triplicate. The abundance of LDLR mRNA or PCSK9 mRNA in untreated cells was defined as 1, and the amounts of LDLR mRNA or PCSK9 from compound-treated cells were plotted relative to that value (FIG. 10). The data shown are mean±s.d.
Total RNA was harvested for quantitative real-time RT-PCR analysis using method described in Examples 16B.
The effects of 23 compounds on the mRNA expressions of LDLR and PCSK9 were examined using quantitative real-time RT-PCR assays. HepG2 cells were treated with various compounds at 10 and 40 uM concentrations for 24 hours. Total RNA was isolated and […] was used to generate cDNA in a reaction containing random primers and M-MLV at 37° C. for 1 h in a volume of 25 μl. Real-time PCR was performed on the cDNA using MCEP REALPLEX 2 SYSTEM (Eppendorf) and Universal MasterMix (Applied Biosystems). Human LDLR, PCSK9, and GAPDH Pre-Developed TaqMan Assay Reagents (Applied Biosystems) were used to assess the levels of mRNA expressions in HepG2. The levels of LDLR and PCSK9 mRNA were normalized to that of GAPDH. Each RNA samples was assayed in duplicate. The fold activity was calculated by dividing mRNA abundance in compound treated cells with that of control.

Data set [7] concerns PCSK9 mRNA. In words: PCSK9 mRNA expression in HepG2 cells, quantitative real-time RT-PCR. The class given is cell-based, human. Conditions: indicated concentrations, 24 hours (FIG. 15B). How it is done:
The time-dependent effects of compounds of Formula I, II, III, and IV on the upregulation of LDLR mRNA and the inhibition of PCSK9 mRNA expression were examined (Horton J D, Cohen J C, Hobbs H I T. “Molecular biology of PCSK9: its role in LDL metabolism” TRENDS in Biochemical Sciences 2007; 32:71-77). HepG2 cells were treated with new compounds individually at 20 uM dose for 1 day, 2 day, and 3 days. Total RNA was isolated and 2 μg was used to generate cDNA in a reaction containing random primers and M-MLV at 37° C. for 1 hour in a volume of 25 μl. Real-time PCR was performed on the cDNA using MCEP REALPLEX 2 SYSTEM (Eppendorf) and Universal MasterMix (Applied Biosystems). Human LDLR, PCSK9, and GAPDH Pre-Developed TaqMan Assay Reagents (Applied Biosystems) were used to assess the levels of mRNA expressions in HepG2. The levels of LDLR mRNA or PCSK9 mRNA were normalized to that of GAPDH. Each RNA samples was assayed in triplicate. […]
Total RNA was harvested for quantitative real-time RT-PCR analysis using method described in Examples 16B. […]
The effects of 23 compounds on the mRNA expressions of LDLR and PCSK9 were examined using quantitative real-time RT-PCR assays. […] The fold activity was calculated by dividing mRNA abundance in compound treated cells with that of control.

Molecules are shown by their SMILES.

On to `COc1ccc2c(c1)CCN1Cc3c(ccc(OC)c3OS(=O)(=O)c3cccc(F)c3)CC21` (single isomer, unassigned) [128(−)], for which the “phosphorylation of ACC” value in data set [1] is on record as “induced ACC phosphorylation”. Besides, the LDLR protein levels result in data set [2] is “effectively increased”. Moreover, the “expression of PCSK9 (protein)” value in data set [3] is on record as “strongly inhibited”. Besides, the “adverse effect / toxicities” value in data set [4] is given as “absence of any adverse effect”. Further, in data set [5] (14 days treatment, summary in words), the “TC and LDL-C reduction” value is “strong TC and LDL-C reduction”. Further, in data set [5], the Body weight was determined as 2.7 kg; the “serum total cholesterol levels, treatment day 0” value was found to be 28.5 ± 6.3; the “serum total cholesterol levels, treatment day 4” value is on record as 29.9 ± 8.0; the “serum total cholesterol levels, treatment day 7” value was found to be 29.0 ± 7.9. In data set [5], the “serum total cholesterol levels, treatment day 10” value amounted to 27.9 ± 5.2; the “serum total cholesterol levels, treatment day 14” value is 29.7 ± 4.9; the ALP is on record as 155.5 IU/L; the ALT came to 50.2 IU/L. Further, in data set [5], the AST is reported as 20.8 IU/L, the CK is recorded as 997.5 U/L, the CREA came out at 105.2 µmol/L and the GLU is 7.9 mmol/L. Besides, in data set [5], the HDL-C is recorded as 3.5 mmol/L, the LDH stood at 50.3 IU/L, the LDL-C came out at 24.4 mmol/L and the TC was found to be 29.7 mmol/L. Also, the TG in data set [5] is on record as 0.9 mmol/L.
As to `COc1cc2c(cc1OC)C1Cc3ccc(OC)c(OS(=O)(=O)c4ccccc4)c3CN1CC2` (centres unmarked) [Compound 91, 2,3,10-trimethoxy-5,6,7,8,13,13a-hexahydroisoquinolino[2,1-b]isoquinolin-9-yl benzenesulfonate], the “LDLR mRNA expression” value in data set [6] was “dose-dependently increases”. Besides, in data set [7], the “PCSK9 mRNA expression” value was “inhibits”.
Regarding `COc1ccc2c(c1)CCN1Cc3c(ccc(OC)c3OS(=O)(=O)c3cccc(F)c3)CC21` (single isomer, unassigned) [128(+)], the “phosphorylation of ACC” value in data set [1] was “induced ACC phosphorylation”. In addition, the LDLR protein levels result in data set [2] is listed as “effectively increased”. Besides, in data set [3], the “expression of PCSK9 (protein)” value was “strongly inhibited”. In addition, in data set [5], the Body weight is on record as 2.6 kg; the “serum total cholesterol levels, treatment day 0” value was found to be 28.6 ± 6.7; the “serum total cholesterol levels, treatment day 4” value is 31.9 ± 7.5; the “serum total cholesterol levels, treatment day 7” value is reported as 33.9 ± 7.2. In addition, in data set [5], the “serum total cholesterol levels, treatment day 10” value turned out to be 33.8 ± 7.8; the “serum total cholesterol levels, treatment day 14” value was determined as 34.2 ± 7.4; the ALP was determined as 165.2 IU/L; the ALT was 68.7 IU/L. Besides, in data set [5], the AST stood at 20.8 IU/L, the CK is on record as 1172.3 U/L, the CREA is 97.2 µmol/L and the GLU was 7.9 mmol/L. In data set [5], this molecule came in with an HDL-C of 3.6 mmol/L, an LDH of 47.7 IU/L, an LDL-C of 29.7 mmol/L and a TC of 34.2 mmol/L. The TG in data set [5] was found to be 1.0 mmol/L.

Source of the values: US8710071B2, “Compounds, compositions and methods for reducing lipid levels” (CVI Pharmaceuticals Limited, priority 2008, dated 2014).
